{
  "source": "patent US5912183A",
  "about": "“Peptide inhibitors of mitogenesis and motogenesis” (Pharmacia & Upjohn S.p.A., priority 1993, dated 1999)",
  "test_system": "N- and C-SH2 domains of p85",
  "assay": "BIAcore inhibition of binding of GST-SH2 domains to immobilized PDGF receptor phosphopeptide Y751",
  "design": "species or system bovine",
  "details": "range of phosphopeptide concentrations; 25° C.; FIG. 7",
  "procedure": "FIG. 7. Evaluation of the relative affinities of phosphotyrosine 1313, 1349 and 1356 for the N- and C- SH2 domains of p85. Affinities were determined by biospecific interaction analysis with the BIAcore instrument (Jonsson, U., Fagerstam, L., Roos, H., Ronnberg, J., Sjolander, Stenber, E., Stahlberg, R. Urbaniczky, C., Ostlin, H., and Malmquist. 1991. Surface plasmon reasonance and microfluidics for real time biospecific interaction analysis. Biotechniques 11: 520-527; Jonsson, U. and M. Malmquist. 1992. Real time biospecific analysis. The integration of surface plasmon reasonance detection, general biospecific interface chemistry and microfluidics into one analytical system p. 291-336. In F. Turner (ed), Advances in Biosensors, vol. 2 JAI Press, London; Karlsson, R., Michaelsson, A., and L. Mattsson. 1991. Kinetic analysis of monoclonal antibody-antigen interactions with a new biosensor based analytical system. J. Immunol. Meth. 145: 229-246).\nRelative affinities were determined by measuring the ability of the phosphopeptides to inhibit the interaction of the SH2 domains with an immobilized phosphopeptide (DMSKDESVDY*VPMLDMK) (SEQ. ID NO: 26) which includes Y751 in the human PDGF receptor. Panel A and B show the results of these measurements, expressed as % inhibition of binding to phosphopeptide Y751.\nGST-SH2 domain fusion proteins. The N- and C-SH2 domains of the bovine PI 3-kinase p85 subunit (amino acids 314-431 and 612-722) were obtained by polymerase chain reaction and cloned into the pGEX-2 bacterial expression vector (Smith, D. B., and Johnson K. S., Gene 67: 31-40 (1988).\nGlutathione-S-transferase (GST)-SH2 fusion proteins were purified from bacterial lysates by glutathione affinity chromatography (Panayotou, G., et al. EMBO J., 11: 4261-4272 (1992)). Amino acid analysis on an Applied Biosystems 420A analyzer was used to determine the concentration of the recombinant proteins.\nAnalysis of the interaction of Y1349 and Y1356 with the p85 N- and C- SH2 domains using the BIAcore. […]",
  "note": "Residues, ends and D or L forms follow the SMILES beside them.",
  "data": [
    {"smiles": "CSCC[C@H](NC(=O)[C@@H](NC(=O)[C@H](CCC(=O)O)NC(=O)[C@@H](N)Cc1ccc(OP(=O)(O)O)cc1)C(C)C)C(=O)N[C@@H](CC(C)C)C(=O)N[C@@H](CCCCN)C(=O)N[C@@H](CS)C(=O)N[C@@H](Cc1c[nH]c2ccccc12)C(=O)O", "note": "[H-Tyr*-Glu-Val-Met-Leu-Lys-Cys-Trp-OH] (HELM PEPTIDE1{[N[C@@H](Cc1ccc(OP(=O)(O)O)cc1)C(=O)[*:2]].E.V.M.L.K.C.W}$$$$V2.0)", "values": [
      {"measurement": "Apparent relative affinity: inhibition of binding of p85 N- and C-SH2 domains to phosphopeptide Y751", "value": "highest apparent affinity"}
    ]}
  ]
}
